Tests used:
Experiment in all cases: greenhouse pre-emergence herbicidal test
Format in all cases: in vivo
Settings in all cases: 250 g/ha, scale 0 to 100
[1] = system: Echinocloa crus-galli
Excerpt: (§1) The culture containers used were plastic flowerpots containing loamy sand with approximately 3.0% of humus as the substrate. The seeds of the test plants were sown separately for each species.
(§2) For the pre-emergence treatment, the active ingredients, which had been suspended or emulsified in water, were applied directly after sowing by means of finely distributing nozzles. The containers were irrigated gently to promote germination and growth and subsequently covered with transparent plastic hoods until the plants had rooted. This cover caused uniform germination of the test plants, unless this had been impaired by the active ingredients.
(§3) Depending on the species, the plants were kept at 10-25° C. or 20-35° C., respectively.
(§4) The test period extended over 2 to 4 weeks. During this time, the plants were tended, and their response to the individual treatments was evaluated.
(§5) Evaluation was carried out using a scale from 0 to 100. 100 means no emergence of the plants, or complete destruction of at least the aerial moieties, and 0 means no damage, or normal course of growth. A moderate herbicidal activity is given at values of at least 60, a good herbicidal activity is given at values of at least 70, and a very good herbicidal activity is given at values of at least 85.

[2] = system: Amaranthus retroflexus
Excerpt: as §1, §2, §3, §4, §5

[3] = system: Abutilon theophrasti
Excerpt: (§6) The culture containers used were plastic flowerpots containing loamy sand with approximately 3.0% of humus as the substrate. The seeds of the test plants were sown separately for each species. For the pre-emergence treatment, the active ingredients, which had been suspended or emulsified in water, were applied directly after sowing by means of finely distributing nozzles. The containers were irrigated gently to promote germination and growth and subsequently covered with transparent plastic hoods until the plants had rooted. This cover caused uniform germination of the test plants, unless this had been impaired by the active ingredients. […] The test period extended over 2 to 4 weeks. During this time, the plants were tended, and their response to the individual treatments was evaluated. Evaluation was carried out using a scale from 0 to 100. 100 means no emergence of the plants, or complete destruction of at least the aerial moieties, and 0 means no damage, or normal course of growth.

[4] = system: Setaria faberi
Excerpt: as §6

[5] = system: Alopercurus myosuroides
Excerpt: as §1, §2, §3, §4, §5

SMILES | herbicidal activity [1] [%] | herbicidal activity [2] [%] | herbicidal activity [3] [%] | herbicidal activity [4] [%] | herbicidal activity [5] [%]
CC(C)(F)c1nc(N)nc(Nc2c(F)cccc2OCc2ccsc2)n1 [Example 22] | 100 | 100 | 100 | 100 | 
Cc1cccc(COc2cccc(F)c2Nc2nc(N)nc(C(C)(C)F)n2)c1 [Example 26] | 80 |  | 85 | 70 | 
CC(C)(F)c1nc(N)nc(Nc2c(F)cccc2OCc2ccccc2F)n1 [Example 27] | 100 |  | 100 | 100 | 
Cc1ccccc1COc1cccc(F)c1Nc1nc(N)nc(C(C)(C)F)n1 [Example 30] | 100 | 100 | 100 | 100 | 
Nc1nc(Nc2c(F)cccc2OCc2ccccc2)nc(C2(F)CCCCC2)n1 [Example 31] | 100 | 75 | 85 |  | 
CCC(F)c1nc(N)nc(Nc2c(F)cccc2OCc2ccccc2)n1 (stereo not drawn) [Example 35] | 100 | 100 | 100 | 100 | 
CC(C)(F)c1nc(N)nc(Nc2c(F)cccc2OCc2nc(C3CC3)no2)n1 [Example 42] |  | 100 | 80 |  | 
CC(C)(F)c1nc(N)nc(Nc2c(F)cccc2OCc2cc(F)cc(F)c2)n1 [Example 43] | 100 | 100 | 100 |  | 
CC(C)(F)c1nc(N)nc(Nc2c(F)cccc2OCc2cccc(Br)c2)n1 [Example 44] |  |  | 70 | 70 | 
CC(C)(F)c1nc(N)nc(Nc2c(F)cccc2OCc2cccc(Cl)c2)n1 [Example 47] | 80 | 100 | 100 |  | 
CC(C)(F)c1nc(N)nc(Nc2c(F)cccc2OCc2ncco2)n1 [Example 70] | 100 | 100 | 100 |  | 
CCCC(F)c1nc(N)nc(Nc2c(F)cccc2OCc2ccccc2)n1 (stereo not drawn) [Example 77] | 100 |  | 80 | 100 | 
COc1ccccc1COc1cccc(F)c1Nc1nc(N)nc(C(C)(C)F)n1 [Example 100] | 100 | 100 | 80 |  | 
Cc1c(F)cccc1COc1cccc(F)c1Nc1nc(N)nc(C(C)(C)F)n1 [Example 102] | 100 |  | 85 | 100 | 
CC(C)(F)c1nc(N)nc(Nc2c(OCc3ccccc3)ccc(F)c2F)n1 [Example 108] | 100 | 100 |  | 100 | 100
CC(C)(F)c1nc(N)nc(Nc2c(C#N)cccc2OCc2ccccc2)n1 [Example 128] |  | 100 | 90 | 90 | 
CC(C)(F)c1nc(N)nc(Nc2c(F)cccc2OC(F)(F)c2cccc(F)c2)n1 [Example 130] | 100 |  | 100 | 100 | 
COC(C)(C)c1nc(N)nc(Nc2c(F)cccc2OC(F)(F)c2cccc(F)c2)n1 [Example 131] |  | 85 | 90 | 90 | 
COc1cccc(COc2c(F)ccc(F)c2Nc2nc(N)nc(C(C)(C)F)n2)c1 [Example 139] | 100 | 100 | 100 | 100 | 
Cc1ccc(COc2c(F)ccc(F)c2Nc2nc(N)nc(C(C)(C)F)n2)cc1 [Example 141] | 100 |  | 98 | 100 | 
CC(C)(F)c1nc(N)nc(Nc2c(F)ccc(F)c2OCc2ccccc2F)n1 [Example 172] | 100 |  | 100 | 100 | 
COc1ccccc1COc1c(F)ccc(F)c1Nc1nc(N)nc(C(C)(C)F)n1 [Example 173] | 100 | 100 | 100 |  | 
Cc1ccc(F)c(Nc2nc(N)nc(C(C)(C)F)n2)c1OCc1ccccc1 [Example 175] | 100 |  | 85 | 95 | 

SMILES | herbicidal activity [1] [%] | herbicidal activity [2] [%] | herbicidal activity [3] [%] | herbicidal activity [4] [%] | herbicidal activity [5] [%]
Cc1ccc(COc2c(F)cc(F)c(F)c2Nc2nc(N)nc(C(C)(C)F)n2)cc1 [Example 183] | 100 |  | 100 | 100 | 
COc1ccccc1COc1ccc(F)c(F)c1Nc1nc(N)nc(C(C)(C)F)n1 [Example 198] | 100 |  | 98 | 100 | 
CC(C)(C)c1nc(N)nc(Nc2c(F)c(F)cc(F)c2OCc2ccccc2)n1 [Example 200] | 100 |  | 100 | 100 | 
Nc1nc(Nc2c(F)cccc2OCc2ccccc2)nc(C(F)C2CCCC2)n1 (stereo not drawn) [Example 202] | 80 |  | 80 | 85 | 
CC(C)(F)c1nc(N)nc(Nc2c(F)c(F)cc(F)c2OCc2ccc(Cl)cc2)n1 [Example 207] | 100 |  | 90 | 100 | 
CC(C)c1ccccc1COc1c(F)cc(F)c(F)c1Nc1nc(N)nc(C(C)(C)F)n1 [Example 208] |  | 80 | 90 |  | 
CC(C)(F)c1nc(N)nc(Nc2c(F)c(F)cc(F)c2OCc2cccc(Cl)c2)n1 [Example 217] | 100 |  | 98 | 100 | 
COCc1cccc(COc2c(F)cc(F)c(F)c2Nc2nc(N)nc(C(C)(C)F)n2)c1 [Example 219] | 85 |  | 100 | 100 | 
CC(C)(F)c1nc(N)nc(Nc2c(F)c(F)cc(Br)c2OCc2ccccc2)n1 [Example 222] | 100 |  | 98 | 100 | 
CC(C)(F)c1nc(N)nc(Nc2c(F)ccc(Br)c2OCc2ccccc2)n1 [Example 223] | 95 |  | 100 | 100 | 
COCc1ccccc1COc1c(F)cc(F)c(F)c1Nc1nc(N)nc(C(C)(C)F)n1 [Example 224] | 90 |  | 100 | 100 | 
CC(C)(F)c1nc(N)nc(Nc2c(F)c(F)cc(F)c2OCc2ccccc2Br)n1 [Example 232] | 100 |  | 100 | 100 | 
COC(C)c1nc(N)nc(Nc2c(F)c(F)cc(F)c2OCc2ccccc2Cl)n1 (stereo not drawn) [Example 243] | 85 |  | 85 | 85 | 
COC(C)c1nc(N)nc(Nc2c(F)c(F)cc(F)c2OCc2cccc(Cl)c2)n1 (stereo not drawn) [Example 244] |  | 75 | 85 | 75 | 
CC(C)(Cl)c1nc(N)nc(Nc2c(F)c(F)cc(F)c2OCc2ccccc2)n1 [Example 246] | 100 | 100 | 100 |  | 
COC(C)(C)c1nc(N)nc(Nc2c(F)c(F)cc(F)c2OCc2ccccc2F)n1 [Example 248] | 100 | 100 | 100 |  | 
COC(C)(C)c1nc(N)nc(Nc2c(F)c(F)cc(F)c2OCc2cccc(F)c2)n1 [Example 249] | 100 |  | 100 | 100 | 
COC(C)(C)c1nc(N)nc(Nc2c(F)c(F)cc(F)c2OCc2ccc(F)cc2)n1 [Example 250] | 100 | 100 | 100 |  | 
COC(C)(C)c1nc(N)nc(Nc2c(F)c(F)cc(F)c2OCc2ccccc2Cl)n1 [Example 251] | 95 |  | 98 | 100 | 
COC(C)(C)c1nc(N)nc(Nc2c(F)c(F)cc(F)c2OCc2cccc(Cl)c2)n1 [Example 252] |  | 95 | 100 | 100 | 
CC(C)c1nc(N)nc(Nc2c(F)c(F)cc(F)c2OCc2ccccc2)n1 [Example 254] | 100 |  | 100 | 100 | 
CC(C)(F)c1nc(N)nc(Nc2c(F)cccc2OCc2ccccc2)n1 [Example 257] |  |  | 100 |  | 

— patent publication US11992012B2, “Diaminotriazine compounds” (BASF SE, priority 2018, dated 2024)
